# Results published in the PolyMetriX glass transition set.
# ± gives the standard deviation of the reports.
row,SMILES,glass transition temperature [°C]
1,*c1cc(C)c(Cc2cc(C)c(N3C(=O)c4ccc(Oc5ccc(Oc6ccc7c(c6)C(=O)N(*)C7=O)cc5)cc4C3=O)cc2C)cc1C (repeat unit),278.00
2,*CC(*)c1ccc(C#N)cc1 (repeat unit),180.00
3,*Nc1ccc(Cc2ccc(NC(=O)c3cc(C(*)=O)cc(N4C(=O)C5C6C=CC(C6)C5C4=O)c3)cc2)cc1 (repeat unit),303.00
4,*CCN(*)Cc1ccccc1 (repeat unit),-16.00
5,*/N=N/c1ccc(C(=O)NCCCCNC(=O)c2ccc(*)cc2)cc1 (repeat unit),215.00
6,*/C=C/c1cc(OCCCCCC)c(*)cc1OC (repeat unit),60.00
7,*O[Si](*)(C)CCCn1c2ccccc2c2ccccc21 (repeat unit),55.5
8,*CCCC(=O)Oc1ccc(OC(=O)c2ccc3c(c2)C(=O)N(*)C3=O)cc1 (repeat unit),132.00
9,*C(=O)Nc1ccc(Oc2ccc(NC(=O)c3ccc4c(c3)C(=O)N(c3ccc(Oc5ccc(C6(c7ccc(Oc8ccc(N9C(=O)c%10ccc(*)cc%10C9=O)cc8)cc7)NC(=O)c7ccccc76)cc5)cc3)C4=O)cc2)cc1 (repeat unit),325.00
10,*c1ccc2c(c1)C(=O)N(c1ccc(Oc3ccc(N4C(=O)c5ccc(-c6c(-c7ccccc7)c(-c7ccccc7)c(-c7ccc(Oc8ccc(-c9c(-c%10ccccc%10)c(-c%10ccccc%10)c(*)c(-c%10ccccc%10)c9-c9ccccc9)cc8)cc7)c(-c7ccccc7)c6-c6ccccc6)cc5C4=O)cc3)cc1)C2=O (repeat unit),329.00
11,*OCCOC(=O)c1cccc(C(=O)OCCOc2nc(-c3ccc(OCCCC)cc3)nc(*)c2-c2ccc(OC)cc2)c1 (repeat unit),92.00
12,*Oc1ccc(C2(c3ccc(OC(*)=O)cc3)CC(C)CC(C)(C)C2)cc1 (repeat unit),235.50
13,*CC(*)c1c(F)c(F)c(C(F)(F)F)c(F)c1F (repeat unit),112.00
14,*CCCCCC(=O)Oc1ccc(OC(=O)CCCCCn2c(=O)c3cc4c(=O)n(*)c(=O)c4cc3c2=O)c(C)c1 (repeat unit),78.00
15,*CCCC1(C)CCN(C(=O)CCC(=O)N2CCC(*)(C)CC2)CC1 (repeat unit),99.00
16,*Oc1ccc(Oc2ccc(/C=N/CCCCCCCCCC/N=C/c3ccc(*)cc3)cc2)cc1 (repeat unit),108.00
17,*Sc1ccc(Sc2ccc(Sc3cccc4c3C(=O)N(N3C(=O)c5cccc(*)c5C3=O)C4=O)cc2)cc1 (repeat unit),266.00
18,*Oc1ccc(/N=C/CCC/C=N/c2ccc(OC(=O)Nc3cc(NC(*)=O)ccc3C)cc2)cc1 (repeat unit),69.00
19,*CC1CCC(CNC(=O)CCCCC(=O)N*)CC1 (repeat unit),113.00
20,*CCCCCCNC(=O)CCCCCCCC1C(CCCCCCCC(=O)N*)C=CC(CCCCCC)C1CCCCCCCC (repeat unit),-3.00
21,*c1ccc2c(c1)C(=O)N(c1ccc(-c3ccc(N4C(=O)c5ccc(C(*)(C(F)(F)F)C(F)(F)F)cc5C4=O)c(OC(=O)/C=C/c4ccccc4)c3)cc1OC(=O)/C=C/c1ccccc1)C2=O (repeat unit),181.00
22,*Oc1ccc(S(=O)(=O)c2ccc(Oc3ccc(C(c4ccc(*)c([Si](C)(C)C)c4)(C(F)(F)F)C(F)(F)F)cc3[Si](C)(C)C)cc2)cc1 (repeat unit),168.60
23,*OC(COCCOC)COC(*)=O (repeat unit),-50.00

row,SMILES,glass transition temperature [°C]
1,"*Oc1ccc(C(CCC)(CCC)c2ccc(OC(*)=O)cc2)cc1 (repeat unit) [Poly[4,4-heptane bis(4-phenyl)carbonate]]",148 ± 0.6
2,*c1ccc2oc(-c3cccc(-c4nc5cc(C(*)(c6ccccc6)C(F)(F)F)ccc5o4)c3)nc2c1 (repeat unit),301.00
3,*COC(=O)NCCCCCCNC(=O)OCc1ccc(*)o1 (repeat unit),33.00
4,*c1ccc(OC(=O)c2cccc(C(=O)Oc3ccc(C4(*)c5ccccc5C(=O)N4C)cc3)c2)cc1 (repeat unit),285.00
5,*CCCCCCNC(=O)CCP(C)(=O)CCC(=O)N* (repeat unit),57.50
6,*c1ccc(C(c2ccc(N3C(=O)c4cc(-c5ccc([Si](C)(C)C)cc5)c(-c5cc6c(cc5-c5ccc([Si](C)(C)C)cc5)C(=O)N(*)C6=O)cc4C3=O)cc2)(C(F)(F)F)C(F)(F)F)cc1 (repeat unit),365.00
7,*c1ccc2c(c1)C(=O)N(c1ccc(S(=O)(=O)c3ccc(S(=O)(=O)c4ccc(N5C(=O)c6ccc(C(*)(C(F)(F)F)C(F)(F)F)cc6C5=O)cc4)cc3)cc1)C2=O (repeat unit),331.00
8,*CCOC(=O)CCC(=O)O* (repeat unit) [Poly(ethylene succinate)],-8.63 ± 3.5
9,*CC(*)OC(=O)C(Cl)(Cl)Cl (repeat unit),59.00
10,*Oc1ccc(-c2ccc(-c3ccc(Oc4ccc(C(=O)c5cccc(C(=O)c6ccc(*)cc6)c5)cc4)cc3)cc2)cc1 (repeat unit),174.00
11,*c1ccc(Oc2ccc(-c3ccc(Oc4ccc(N5C(=O)C(c6ccccc6)=C(c6ccc(C7=C(c8ccccc8)C(=O)N(*)C7=O)cc6)C5=O)cc4)cc3)cc2)cc1 (repeat unit),282.00
12,*CCCCCCCCCCCCN1C(=O)c2ccc(C(c3ccc4c(c3)C(=O)N(CCCCCCCCCCCCN3C(=O)c5ccc6c7ccc8c9c(ccc(c%10ccc(c5c6%10)C3=O)c97)C(=O)N(*)C8=O)C4=O)(C(F)(F)F)C(F)(F)F)cc2C1=O (repeat unit),170.00
13,*c1ccc(OC(=O)c2cc(C(=O)Oc3ccc(C4(*)OC(=O)c5ccccc54)cc3)cc(C(C)(C)C)c2)cc1 (repeat unit),279.00
14,*CC(*)(C)C(=O)OC1CCCC1 (repeat unit),75.00
15,*/C(C)=C(/*)SCCCCCC (repeat unit),110.00
16,*Oc1cc(C(=O)c2ccccc2)c(Oc2ccc(*)cc2)cc1C(=O)c1ccccc1 (repeat unit),137.00
17,*=Nc1ccc(/N=C(\c2ccccc2)c2ccc(C(=*)c3ccccc3)cc2)cc1 (repeat unit),179.00
18,*/C=C(\C#N)C(=O)OCCCCCCCCCCOC(=O)/C(C#N)=C/c1ccc2c(c1)c1cc(*)ccc1n2CCCCCCC (repeat unit),59.00
19,*Oc1cccc(NC(=O)c2cccc(C(=O)Nc3ccc(Oc4ccc(C(=O)c5ccc(*)cc5)cc4)cc3)c2)c1 (repeat unit),114.00
20,*SC(C)C(*)=O (repeat unit),12.00
21,*CCCCCCCn1c2ccccc2c2cc(/C=C(\C#N)C(=O)OCCCCCCOC(=O)/C(C#N)=C/c3ccc4c(c3)c3ccccc3n4*)ccc21 (repeat unit),107.80
22,*Oc1ccc(S(=O)(=O)c2ccc(Oc3ccc(C4(c5ccc(*)cc5)C5CC6CC(C5)CC4C6)cc3)cc2)cc1 (repeat unit),297.00
23,*c1ccc(-c2cnc3ccc(-c4ccc5ncc(*)nc5c4)cc3n2)cc1 (repeat unit),376.00
